According to patent US4064169A, “Bis-(meta-amidinophenoxy)-compounds and pharmacologically acceptable acid addition salts thereof” (Eisai Co., Ltd., priority 1976, dated 1977):
Structures can show the parent of a compound that is named as a salt.

Assays:
Type in all cases: cell-based
Escherichia coli E-15 = experiment: Antibacterial Test (agar dilution M.I.C.); conditions: E15, Table 5, 37° C., 18 hours
Protocol: (§1) A compound under test was dissolved in aseptic water to prepare a two fold dilution series. Each 1 milliliter of the solution was taken in a petri dish. Nine ml of infusion agar medium (Difco) was added to the solution, thereby preparing the agar plate for test. A pre-culture of each test strain in Tripticase soy broth medium (BBL) at 37° C. for 18 hours was streaked on the above-mentioned agar plate, and the said agar plate was incubated at 37° C. for 18 hours to determine the minimal inhibitory concentration (M.I.C.).

[1] = test system: Escherichia coli NIHJ JC-1; experiment: Antibacterial Test (agar dilution M.I.C.); conditions: NIHJJC1, Table 5, 37° C., 18 hours
Protocol: as §1

[2] = test system: Staphylococcus aureus 13-6; experiment: Antibacterial Test (agar dilution M.I.C.); conditions: 136, Table 5, 37° C., 18 hours
Protocol: as §1

Proteus mirabilis OM-1 = experiment: Antibacterial Test (agar dilution M.I.C.); conditions: OM1, Table 5, 37° C., 18 hours
Protocol: as §1

[3] = test system: Streptococcus hemolyticus Y-73-5; experiment: Antibacterial Test (agar dilution M.I.C.); conditions: Streptococcus pyogenes, Y735; Table 5; 37° C., 18 hours
Protocol: as §1

[4] = test system: Salmonella typhimurium 1406; experiment: Antibacterial Test (agar dilution M.I.C.); conditions: Salmonella enterica, Table 5, 37° C., 18 hours
Protocol: as §1

[5] = test system: Klebsiella pneumonial NO-1; experiment: Antibacterial Test (agar dilution M.I.C.); conditions: NO1, Table 5, 37° C., 18 hours
Protocol: as §1

Pseudomonas aeruginosa = experiment: Antibacterial Test (agar dilution M.I.C.); conditions: Table 5, 37° C., 18 hours
Protocol: as §1

[6] = test system: Staphylococcus aureus 209-P JO-1; experiment: Antibacterial Test (agar dilution M.I.C.); conditions: Table 5, 37° C., 18 hours
Protocol: as §1

[7] = test system: Candida albicans Yu-1200 IFM 4020; experiment: Antifungal Test (agar dilution M.I.C.); conditions: Candida albicans
Protocol: (§2) Respective agar plates were prepared by dissolving compounds under test in aseptic water to make a two fold dilution series, taking each 1 milliliter of said diluted solutions and 9 ml of Sabouraud medium into a petri dish, and sufficiently admixing the same.
(§3) On the other hand, an inoculum was prepared by cultivating an examined fungus (microorganism) on the Sabouraud slant medium and suspending two loopful of the incubated fungus in 10 ml of sterilized physiological saline water.
(§4) One loopful of the inoculum was streaked on the above-mentioned agar plate. After the agar plate was incubated at a defined temperature for a predetermined period of time to determine the minimal inhibitory concentration (M.I.C.).
(§5) Incubation temperature:
(§6) Incubation time: 3 days (72 hours) and
(§7) Incubation time: 3 days (72 hours)
(§8) activity incubation conditions:
(§9) Incubation time 3 days (72 hours)
(§10) Incubation time 7 days (168 hours)
(§11) Incubation time 2 days (48 hours)

[8] = test system: Candida albicans AHU 3656; experiment: Antifungal Test (agar dilution M.I.C.); conditions: for MIC: Candida albicans
Protocol: as §2, §3, §4, §5, §6, §7, §8, §9, §10, §11

[9] = test system: Candida albicans NAKAGAWA IFM 4017; experiment: Antifungal Test (agar dilution M.I.C.); conditions: Candida albicans
Protocol: as §2, §3, §4, §5, §6, §7, §8, §9, §10, §11

Trichomonas vaginalis = experiment: Anti-trichomonal Test; conditions: 72 h, ASAMI medium containing 20% horse serum, 37° C., 3 days, read-out: minimal inhibitory concentration
Protocol: The compound under test was dissolved in aseptic water, and filtered aseptically to prepare a two fold dilution series. Each 2.6 ml ASAMI medium containing 20% of the horse serum were respectively taken into small test tubes. Onto the medium, there were incubated 0.3 ml of the two fold dilution solution of the compounds and 0.1 ml of the suspension of the ASAMI medium of Trichomonas vaginalis which was cultured at 37° C. for 3 days respectively. Incubation was carried out at 37° C. for 3 days to determine the minimal inhibitory concentration.

[10] = test system: yeast-like fungi such as Candida, Cryptococcus; experiment: Antifungal Test (summary)
Protocol: as §2, §3, §4

[11] = test system: Candida albicans IFM 4080; experiment: Antifungal Test (agar dilution M.I.C.); conditions: for MIC: Candida albicans
Protocol: as §2, §3, §4, §5, §6, §8, §9, §10, §11

[12] = test system: Staphylococcus aureus 209-P, Staphylococcus aureus 13-6 and Streptococcus pyogenes; experiment: Antibacterial Test (summary); conditions: 37° C., 18 hours; read-out: minimal inhibitory concentration
Protocol: as §1

[13] = test system: gram-negative bacteria such as Escherichia coli NIHJ and Escherichia coli E-15; experiment: Antibacterial Test (summary); conditions: 18 h, 37° C., read-out: minimal inhibitory concentration
Protocol: as §1

Candida albicans = experiment: Anti-candida activity (summary)
Protocol: as §2, §3, §4, §7

Saccharomyces cerevisiae = experiment: Antifungal Test (agar dilution M.I.C.); conditions: Table 1, 27° C.
Protocol: as §2, §3, §4, §5
(§12) Incubation time: 3 days (72 hours) and […]

Cryptococcus neoformans = experiment: Antifungal Test (agar dilution M.I.C.); conditions: Table 1, 27° C.
Protocol: as §2, §3, §4, §5, §12

[14] = test system: Candida tropicalis AHU 3071; experiment: Antifungal Test (agar dilution M.I.C.); conditions: Table 1, 27° C.
Protocol: as §2, §3, §4, §5, §12

[15] = test system: Candida guilliermondii AHU 3654; experiment: Antifungal Test (agar dilution M.I.C.); conditions: Meyerozyma guilliermondii, Table 1, 27° C.
Protocol: as §2, §3, §4, §5, §12

Candida ulitis AHU 3053 = experiment: Antifungal Test (agar dilution M.I.C.); conditions: Table 1, 27° C.
Protocol: as §2, §3, §4, §5, §12

[16] = Table 1, 27° C., 3 days incubation
[17] = Table 1, 27° C., 7 days incubation

Question: Which results are given for `N=C(N)c1cccc(OCC2CCC(COc3cccc(C(=N)N)c3)CC2)c1` (stereo not shown) [Compound A, 1,4-Bis-(m,m'-amidinophenoxymethyl)-cyclohexane-dihydrochloride]?
Answer: MIC (Escherichia coli E-15): 200 µg/mL; MIC [1]: 100 µg/mL; MIC [2]: 6.25 µg/mL; MIC (Proteus mirabilis OM-1): > 200 µg/mL; MIC [3]: 6.25 µg/mL; MIC [4]: 200 µg/mL; MIC [5]: 200 µg/mL; MIC (Pseudomonas aeruginosa): > 200 µg/mL; MIC [6]: 3.13 µg/mL; MIC ([7]; YU1200IFM4020, 48 h, Table 3, 37° C., 2 days): 0.8 µg/mL; MIC ([7]; YU1200IFM4020, 72 h, Table 1, 27° C., 3 days incubation): < 1.56 µg/mL; MIC ([7]; YU1200IFM4020, 72 h, Table 2, 37° C., 3 days (72 hours)): 0.8 µg/mL; MIC ([7]; YU1200IFM4020, 72 h, Table 3, 27° C., 3 days): 1.56 µg/mL; MIC ([7]; YU1200IFM4020, 72 h, Table 3, 37° C., 3 days): 0.8 µg/mL; MIC ([7]; YU1200IFM4020, 168 h, Table 1, 27° C., 7 days incubation): 3.13 µg/mL; MIC ([7]; YU1200IFM4020, 168 h, Table 3, 27° C., 7 days): 3.13 µg/mL; MIC ([8]; AHU3656, 48 h, Table 3, 37° C., 2 days): 3.13 µg/mL; MIC ([8]; AHU3656, 72 h, Table 3, 27° C., 3 days): 3.13 µg/mL; MIC ([8]; AHU3656, 168 h, Table 3, 27° C., 7 days): 6.25 µg/mL; M.I.C. [8, 16]: 3.13 µg/mL; M.I.C. [8, 17]: 6.25 µg/mL; M.I.C. ([8]; Table 2, 37° C., 3 days (72 hours)): 3.13 µg/mL; M.I.C. ([8]; Table 3, 37° C., 3 days): 3.13 µg/mL; MIC ([9]; 48 h, Table 3, 37° C., 2 days): 0.8 µg/mL; MIC ([9]; 72 h, Table 1, 27° C., 3 days incubation): 3.13 µg/mL; MIC ([9]; 72 h, Table 2, 37° C., 3 days (72 hours)): 1.56 µg/mL; MIC ([9]; 72 h, Table 3, 27° C., 3 days): 3.13 µg/mL; MIC ([9]; 72 h, Table 3, 37° C., 3 days): 1.56 µg/mL; MIC ([9]; 168 h, Table 1, 27° C., 7 days incubation): 3.13 µg/mL; MIC ([9]; 168 h, Table 3, 27° C., 7 days): 3.13 µg/mL; MIC (Trichomonas vaginalis): 200 µg/mL; antifungal activity [10]: excellent antifungal activity; influence of incubation temperature on antifungal activity ([10]; 27° C. and 37° C.): not influenced by the incubation temperature; MIC ([11]; IFM4080, 48 h, Table 3, 37° C., 2 days): 0.8 µg/mL; MIC ([11]; IFM4080, 72 h, Table 3, 27° C., 3 days): 3.13 µg/mL; MIC ([11]; IFM4080, 168 h, Table 3, 27° C., 7 days): 6.25 µg/mL; M.I.C. [11, 16]: 3.13 µg/mL; M.I.C. [11, 17]: 6.25 µg/mL; M.I.C. ([11]; Table 3, 37° C., 3 days): 3.13 µg/mL; MIC [12]: 3.13 to 6.25 µg/mL; MIC [13]: 100 to 200 µg/mL; anti-candida activity compared with nystatin (Candida albicans): more excellent anti-candida activity than that of the nystatin; MIC (Saccharomyces cerevisiae; 72 h, 3 days incubation): < 1.56 µg/mL; MIC (Saccharomyces cerevisiae; 168 h, 7 days incubation): < 1.56 µg/mL; MIC (Cryptococcus neoformans; 72 h, 3 days incubation): 3.13 µg/mL; MIC (Cryptococcus neoformans; 168 h, 7 days incubation): 3.13 µg/mL; MIC ([14]; AHU3071, 72 h, 3 days incubation): 3.13 µg/mL; MIC ([14]; AHU3071, 168 h, 7 days incubation): 3.13 µg/mL; MIC ([15]; AHU3654, 72 h, 3 days incubation): 25 µg/mL; MIC ([15]; AHU3654, 168 h, 7 days incubation): 25 µg/mL; MIC (Candida ulitis AHU 3053; AHU3053, 72 h, 3 days incubation): 3.13 µg/mL; MIC (Candida ulitis AHU 3053; AHU3053, 168 h, 7 days incubation): 3.13 µg/mL
